Results taken from US4265910A (priority 1979, dated 1981).
Where a name gives a salt, the structure may show the parent alone. Read-outs that look alike come from different tables or passages of the source.

What was measured:
[1] = Acute toxicity (50% lethal dose); conditions: mouse, in vivo, ddY male mice 20-25 g
From the text: In order to investigate acute toxicity of the ingredients of the present invention, 50% lethal dose of each ingredient was obtained by intravenous and intraperitoneal administration thereof by ddY male mice weighing 20-25 g. From the results shown in Table 5, it is understood that the ingredients had high safety margin.

[2] = tested on: vaccinia virus (DIE strain); type: in vivo, ICR female mice; conditions: 8th day after inoculation
Human fibroblast cells = experiment: cells; type: cell-based; conditions: read-out: Inhibition of cytolysis
serum interferon = experiment: animal or person; type: in vivo, ICR female mice; conditions: Mus musculus, L929, ip, 20 h, read-out: Plaque inhibition
[3] = ip, intraperitoneal, read-out: 50% Lethal dose, intraperitoneally administered
[4] = intravenous, read-out: 50% Lethal dose, intravenously administered

SMILES | LD50 [1, 3] [mg/kg] | LD50 [1, 4] [mg/kg] | Inhibition of tail lesion ([2]; 20 mg/kg i.p., consecutively dosed (6 times)) [%] | Inhibition of tail lesion ([2]; 20 mg/kg i.p., dosed one time) [%] | Inhibition of tail lesion ([2]; 20 mg/kg p.o., consecutively dosed (6 times)) [%] | Inhibition of tail lesion ([2]; 30 mg/kg i.p., dosed one time) [%] | Inhibition of tail lesion ([2]; 30 mg/kg s.c., dosed one time) [%] | Inhibition of tail lesion ([2]; 40 mg/kg i.p., consecutively dosed (6 times)) [%] | Inhibition of tail lesion ([2]; 40 mg/kg i.p., dosed one time) [%] | Inhibition of tail lesion ([2]; 50 mg/kg p.o., dosed one time) [%] | inhibition at 5 µg/disc (Human fibroblast cells) [%] | inhibition at 20 mg/kg (serum interferon) [%] | inhibition at 40 mg/kg (serum interferon) [%] | Inhibition of tail lesion ([2]; 40 mg/kg p.o., dosed one time) [%] | Inhibition of tail lesion ([2]; 100 mg/kg p.o., dosed one time) [%]
CC(C)=CCCC(C)=CCCC(C)=CCCC(C)=CCCC(C)=CCCC(C)=CCCC(C)=CCCC(C)=CCCC(C)=CCCC(C)=CCN [Decaprenylamine hydrochloride] | 1000 | 39.5 | 77.4 | 76.1 | 56.8 | 68.7 | 69.7 | 88.2 | 79.6 | 24.1 | 64.9 | 47.1 | 83 |  | 
CC(C)=CCCC(C)=CCCC(C)=CCCC(C)=CCCC(C)=CCCC(C)=CCCC(C)=CCCC(C)=CCCC(C)=CCN [Solanesylamine hydrochloride, solanesylamine hydrochloride] | > 500 | 32.3 |  | 35.7 |  | 72.1 | 23.2 |  |  |  | 55.4 | 81 | 79.7 | 40.5 | 
CC(C)=CCCC(C)=CCCC(C)=CCCC(C)=CCCC(C)=CCCC(C)=CCCC(C)=CCCC(C)=CCCC(C)=CCCC(C)=CCCC(C)=CCN [Undecaprenylamine hydrochloride] | > 1000 | 18 |  | 52.4 |  | 40.5 |  |  |  |  | 83.3 |  | 70.3 |  | 45.6
